Laboratory results taken from ChEMBL document CHEMBL4130385, “Structure-function studies of BPP-BrachyNH2 and synthetic analogues thereof with Angiotensin I-Converting Enzyme” (Eur J Med Chem, 2017).
pIC50: −log10 of the molar value.

Columns and labels:
Erythrocyte = assay: Hemolytic activity against sheep blood erythrocytes at 10^-6 to 10^-4 M after 1 hr; assay type: ADME, cell-based, Ovis aries
[1] = (§1) Cytotoxicity against BALB/c mouse peritoneal macrophages assessed as reduction in cell viability after 48 hrs by MTT assay; assay type: cell-based, Peritoneal macrophage; settings: BALB/c, peritoneal macrophages
Peritoneal macrophage [2] = assay: as §1; assay type: cell-based; settings: peritoneal macrophage, 48 h
[3] = molecular target: T1, Angiotensin-converting enzyme (Rattus norvegicus, UniProt P47820); assay: Inhibition of Wistar rat plasma angiotensin 1-converting enzyme using H-hippuryl-His-Leu-OH as substrate after 20 mins by fluorescence assay
T1 sequence (P47820 whole entry): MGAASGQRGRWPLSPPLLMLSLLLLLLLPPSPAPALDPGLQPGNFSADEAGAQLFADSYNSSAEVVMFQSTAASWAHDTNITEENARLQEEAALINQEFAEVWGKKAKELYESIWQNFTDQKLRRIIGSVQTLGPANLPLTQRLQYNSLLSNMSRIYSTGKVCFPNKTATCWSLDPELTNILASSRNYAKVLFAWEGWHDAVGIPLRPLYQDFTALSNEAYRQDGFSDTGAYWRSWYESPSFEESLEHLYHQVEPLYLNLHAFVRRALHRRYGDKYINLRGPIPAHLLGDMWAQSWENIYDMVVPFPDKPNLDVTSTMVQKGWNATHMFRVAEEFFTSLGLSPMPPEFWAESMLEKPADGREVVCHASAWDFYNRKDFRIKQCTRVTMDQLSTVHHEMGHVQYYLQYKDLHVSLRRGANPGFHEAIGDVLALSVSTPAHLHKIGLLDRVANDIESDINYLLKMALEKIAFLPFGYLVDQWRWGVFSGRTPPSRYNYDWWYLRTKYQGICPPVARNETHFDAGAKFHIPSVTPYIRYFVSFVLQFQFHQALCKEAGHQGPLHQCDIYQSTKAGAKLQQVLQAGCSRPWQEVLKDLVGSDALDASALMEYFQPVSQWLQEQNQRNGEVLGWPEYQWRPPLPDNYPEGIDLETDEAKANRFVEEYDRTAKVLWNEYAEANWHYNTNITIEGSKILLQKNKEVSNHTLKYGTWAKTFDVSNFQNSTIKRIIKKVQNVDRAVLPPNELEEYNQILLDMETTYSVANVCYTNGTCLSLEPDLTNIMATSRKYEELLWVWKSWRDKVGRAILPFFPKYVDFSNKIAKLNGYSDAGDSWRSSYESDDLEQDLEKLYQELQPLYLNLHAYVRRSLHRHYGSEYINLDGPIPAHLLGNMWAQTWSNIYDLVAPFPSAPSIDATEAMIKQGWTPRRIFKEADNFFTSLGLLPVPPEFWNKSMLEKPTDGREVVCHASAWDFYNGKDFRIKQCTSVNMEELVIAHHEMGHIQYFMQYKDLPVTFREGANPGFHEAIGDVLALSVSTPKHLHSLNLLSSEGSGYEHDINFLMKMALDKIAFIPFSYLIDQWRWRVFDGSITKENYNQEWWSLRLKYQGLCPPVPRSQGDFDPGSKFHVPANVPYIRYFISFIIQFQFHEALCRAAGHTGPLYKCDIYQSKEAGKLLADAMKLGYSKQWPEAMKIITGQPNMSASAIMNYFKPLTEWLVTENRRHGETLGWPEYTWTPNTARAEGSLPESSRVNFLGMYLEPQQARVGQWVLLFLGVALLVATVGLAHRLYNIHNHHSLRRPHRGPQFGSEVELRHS

Peritoneal macrophage [4] = assay: Cytotoxicity against BALB/c mouse peritoneal macrophages assessed as reduction in cell viability at 5 x 10^-4 M after 48 hrs by MTT assay relative to control; assay type: cell-based; settings: 500 µM
Peritoneal macrophage [5] = assay: Cytotoxicity against BALB/c mouse peritoneal macrophages assessed as reduction in cell viability at 10^-4 M after 48 hrs by MTT assay relative to control; assay type: cell-based; settings: 100 µM

pIC50 [3] | Substance | Activity (Erythrocyte) | CC50 at 48 h [1] | Activity (Peritoneal macrophage [2]) | Activity (Peritoneal macrophage [4]) | Activity (Peritoneal macrophage [5])
4.76 | H-PPPKVSP-NH2 | Non-Toxic | 81.9 µM | Dose-dependent effect | – | –
3.79 | H-WPPPKVS-NH2 | Non-Toxic | 33600 µM | – | 14.8% | 7.7%
5.26 | H-WPPPKVSP-NH2 | Non-Toxic | 176 µM | Dose-dependent effect | – | –
